# Test results taken from US20050100534A1 (priority 2000, published 2005).
# Assays:
# Type in all cases: physicochemical
# [1] = Storage temperature (thermal stability)
# pKa = assay: pKa
# Solubility in methanol = assay: Solubility in methanol
# pH stability = details: for pH stability: pH range in which stable
# Solubility in water = assay: Solubility in water
Structure (SMILES),Storage temperature [1],pKa (pKa),Solubility in methanol (Solubility in methanol) [%],pH stability (pH stability),Solubility in water (Solubility in water),pH stability: alkaline hydrolysis above pH (pH stability; pH above which alkaline hydrolysis occurs)
O=C(O)[C@H](CO)O[C@@H]1O[C@H](CO)[C@@H](O)[C@H](O)[C@@H]1O,up to 95 °C,~4.6,10,2-12,Very good; 60-70% (w/v),–
"NC(=O)[C@H](CO)O[C@@H]1O[C@H](CO)[C@@H](O)[C@H](O)[C@@H]1O [Firoin-A, β-mannosylglyceramide]",–,–,–,Alkaline hydrolysis;,–,>pH 8-9
